# According to paper PMC10728895, “Stapled Phd Peptides Inhibit Doc Toxin Induced Growth Arrest in Salmonella” (ACS Chemical Biology, 2023):
# Positions of bridges follow the written chain, without caps; N, C: chain ends. Non-standard residues stand in square brackets, D forms with d. Residues, ends and D or L forms follow the SMILES beside them. S5 = C=CCCC[C@](C)(N)C(=O)O; Nle = CCCC[C@H](N)C(=O)O
# Assays:
# DocSTm toxin = conditions: DocSTm 5 μM, peptide 50 μM; for Average Tm of DocSTm in the presence of peptide: pH 8.0, average ± SD, replicates 3-48 (Table S3)
# Summary of the method: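 Thermal shift with 5 μM recombinant Doc toxin and 50 μM Phd peptides in 20 mM K2HPO4, 50 mM (NH4)2SO4, pH 8.0, SYPRO Orange 3×, ramped 25–95 °C. Tm from Boltzmann fit; ΔTm is peptide-bound minus free DocSTm Tm, triplicates.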
# [1] = system: DocSTm (phosphorylation of EF-TuSTm); experiment: Dot blot EF-Tu phosphorylation assay; format: biochemical, Salmonella Typhimurium; conditions: DocSTm 1 μM, EF-TuSTm 3 μM, peptide 10 μM to 5 nM (3-fold dilutions), 16 h RT, dot blot anti-phosphothreonine; compared at three times the DocSTm concentration; two independent experiments
# Description: Samples were prepared in assay buffer [50 mM HEPES (pH 7.5), 25 mM (NH4)2SO4, 2 mM TCEP, 2 mM MgCl2, and 1 mM ATP] with a final concentration of recombinant Doc at 1 μM, recombinant EF-Tu at 3 μM, and varying concentrations of synthetic Phd peptides (final concentrations: 10 μM to 5 nM). EF-Tu (3 μM) in assay buffer was used as a negative control (no Doc and Phd peptide), while EF-Tu (3 μM) with Doc (1 μM) in assay buffer was used as a positive control (no Doc inhibitor). The final sample volume was 10 μL. Samples were incubated for 16 h at RT and subsequently spotted on a nitrocellulose membrane. Phosphorylated EF-Tu was detected by immunodecoration using a rabbit monoclonal antiphosphothreonine antibody (Abcam, ab218195) at 1:2000 dilution (1 h at 4 °C), followed by incubation with a goat antirabbit IgG (H + L) HRP conjugate antibody (Advansta) at 1:10,000 dilution (1 h at RT). Chemiluminescence was developed using the HRP Luminata Kit (Merck, WBLUR0100) and captured with an ImageQuant LAS4000 Western blot imaging system (GE HealthCare). Each peptide was tested in two independent experiments.
SMILES,"ΔTm (thermal shift) of DocSTm in the presence of peptide (DocSTm toxin; SYPRO Orange 3×, 20 mM K2HPO4, 50 mM (NH4)2SO4, pH 8.0, average Tm with peptide minus average Tm of free DocSTm, mean ± SD)",Average Tm of DocSTm in the presence of peptide (DocSTm toxin) [°C],Inhibition of EF-TuSTm phosphorylation by DocSTm (concentration needed for full inhibition) [1]
CCCC[C@H](NC(=O)[C@H](Cc1c[nH]c2ccccc12)NC(C)=O)C(=O)N[C@@H](CC(=O)O)C(=O)N[C@@H](CC(N)=O)C(=O)N[C@@H](CCC(=O)O)C(=O)N[C@@H](Cc1ccccc1)C(=O)N[C@@H](C)C(=O)N[C@@H](C)C(=O)N[C@H](C(=O)N[C@@H](CCCC)C(=O)N[C@@H](C)C(=O)N[C@H](C(=O)N[C@@H](Cc1c[nH]cn1)C(=O)NCC(=O)N[C@@H](CCCNC(=N)N)C(=O)N[C@@H](CCC(N)=O)C(=O)N[C@@H](CC(C)C)C(=O)N[C@@H](CCCNC(=N)N)C(=O)N[C@@H](CCCNC(=N)N)C(=O)N[C@@H](CC(C)C)C(=O)N[C@@H](C)C(=O)N[C@@H](CC(N)=O)C(=O)N[C@@H](CCCCN)C(=O)O)C(C)C)[C@@H](C)CC [Peptide 30] (Ac-W[Nle]DNEFAAI[Nle]AVHGRQLRRLANK-OH),≈ 14 °C,56.7 ± 2.6,higher than three times the DocSTm concentration
CCCC[C@H](NC(=O)[C@H](Cc1c[nH]c2ccccc12)NC(C)=O)C(=O)N[C@@H](CC(N)=O)C(=O)N[C@@H](CC(N)=O)C(=O)N[C@@H](CCC(=O)O)C(=O)N[C@@H](Cc1ccccc1)C(=O)N[C@@H](C)C(=O)N[C@@H](C)C(=O)N[C@H](C(=O)N[C@@H](CCCC)C(=O)N[C@@H](C)C(=O)N[C@H](C(=O)N[C@@H](Cc1c[nH]cn1)C(=O)NCC(=O)N[C@@H](CCCNC(=N)N)C(=O)N[C@@H](CCC(N)=O)C(=O)N[C@@H](CC(C)C)C(=O)N[C@@H](CCCNC(=N)N)C(=O)N[C@@H](CCCNC(=N)N)C(=O)N[C@@H](CC(C)C)C(=O)N[C@@H](C)C(=O)N[C@@H](CCCNC(=N)N)C(=O)N[C@@H](CCCCN)C(=O)O)C(C)C)[C@@H](C)CC [Peptide 33] (Ac-W[Nle]NNEFAAI[Nle]AVHGRQLRRLARK-OH),,63.0 ± 0.8,higher than three times the DocSTm concentration
CCCC[C@H](NC(=O)[C@H](Cc1c[nH]c2ccccc12)NC(C)=O)C(=O)N[C@@H](CC(=O)O)C(=O)N[C@@H](CC(N)=O)C(=O)N[C@@H](CCC(=O)O)C(=O)N[C@@H](Cc1ccccc1)C(=O)N[C@@H](C)C(=O)N[C@@H](C)C(=O)N[C@H](C(=O)N[C@@H](CCCC)C(=O)N[C@@H](C)C(=O)N[C@H](C(=O)N[C@@H](Cc1c[nH]cn1)C(=O)NCC(=O)N[C@@H](CCCNC(=N)N)C(=O)N[C@@H](CCC(N)=O)C(=O)N[C@@H](CC(C)C)C(=O)N[C@@H](CCCNC(=N)N)C(=O)N[C@@H](CCCNC(=N)N)C(=O)N[C@@H](CC(C)C)C(=O)N[C@@H](C)C(=O)N[C@@H](CCCNC(=N)N)C(=O)N[C@@H](CCCCN)C(=O)O)C(C)C)[C@@H](C)CC [Peptide 32] (Ac-W[Nle]DNEFAAI[Nle]AVHGRQLRRLARK-OH),,62.6 ± 1.2,close to the activity of peptide 1
CCCC[C@H](NC(=O)[C@H](Cc1c[nH]c2ccccc12)NC(C)=O)C(=O)N[C@@H](CC(N)=O)C(=O)N[C@@H](CC(N)=O)C(=O)N[C@@H](CCC(=O)O)C(=O)N[C@@H](Cc1ccccc1)C(=O)N[C@@H](C)C(=O)N[C@@H](C)C(=O)N[C@H](C(=O)N[C@@H](CCCC)C(=O)N[C@@H](C)C(=O)N[C@H](C(=O)N[C@@H](Cc1c[nH]cn1)C(=O)NCC(=O)N[C@@H](CCCNC(=N)N)C(=O)N[C@@H](CCC(N)=O)C(=O)N[C@@H](CC(C)C)C(=O)N[C@@H](CCCNC(=N)N)C(=O)N[C@@H](CCCNC(=N)N)C(=O)N[C@@H](CC(C)C)C(=O)N[C@@H](C)C(=O)N[C@@H](CC(N)=O)C(=O)N[C@@H](CCCCN)C(=O)O)C(C)C)[C@@H](C)CC [Peptide 31] (Ac-W[Nle]NNEFAAI[Nle]AVHGRQLRRLANK-OH),,61.6 ± 1.9,higher than three times the DocSTm concentration
CCCC[C@H](NC(=O)[C@H](Cc1c[nH]c2ccccc12)NC(C)=O)C(=O)N[C@@H](CCCNC(=N)N)C(=O)N[C@@H](CC(=O)O)C(=O)N[C@@H](CCC(=O)O)C(=O)N[C@@H](Cc1ccccc1)C(=O)N[C@@H](CCCNC(=N)N)C(=O)N[C@@H](C)C(=O)N[C@H](C(=O)N[C@@H](CCCC)C(=O)N[C@@H](CCCNC(=N)N)C(=O)N[C@H](C(=O)N[C@@H](Cc1c[nH]cn1)C(=O)NCC(=O)N[C@@H](CC(N)=O)C(=O)N[C@@H](CCC(=O)O)C(=O)N[C@@H](CC(C)C)C(=O)N[C@@H](CCCNC(=N)N)C(=O)N[C@@H](CCC(=O)O)C(=O)N[C@@H](CC(C)C)C(=O)N[C@@H](C)C(=O)N[C@@H](CC(=O)O)C(=O)N[C@@H](CCCCN)C(=O)O)C(C)C)[C@@H](C)CC [Peptide 19] (Ac-W[Nle]RDEFRAI[Nle]RVHGNELRELADK-OH),,62.5 ± 0.9,fully inhibited
CCCC[C@H](NC(=O)[C@H](Cc1c[nH]c2ccccc12)NC(C)=O)C(=O)N[C@@H](CCCNC(=N)N)C(=O)N[C@@H](CC(=O)O)C(=O)N[C@@H](CCC(=O)O)C(=O)N[C@@H](Cc1ccccc1)C(=O)N[C@@H](CCCNC(=N)N)C(=O)N[C@@H](C)C(=O)N[C@H](C(=O)N[C@@H](CCCC)C(=O)N[C@@H](CCCNC(=N)N)C(=O)N[C@H](C(=O)N[C@@H](Cc1c[nH]cn1)C(=O)NCC(=O)N[C@@]1(C)CCCC=CCCC[C@@](C)(C(=O)N[C@@H](CC(C)C)C(=O)N[C@@H](C)C(=O)N[C@@H](CC(=O)O)C(=O)N[C@@H](CCCCN)C(=O)O)NC(=O)[C@H](CCCNC(=N)N)NC(=O)[C@H](CC(C)C)NC(=O)[C@H](CCC(=O)O)NC1=O)C(C)C)[C@@H](C)CC [Peptide 21] (Ac-W[Nle]RDEFRAI[Nle]RVHG[S5]ELR[S5]LADK-OH; staple 15-19),,61.1 ± 2.5,required a higher concentration to achieve full inhibition
CCCC[C@H](NC(=O)[C@H](Cc1c[nH]c2ccccc12)NC(C)=O)C(=O)N[C@@H](CCCNC(=N)N)C(=O)N[C@@H](CC(=O)O)C(=O)N[C@@H](CCC(=O)O)C(=O)N[C@@H](Cc1ccccc1)C(=O)N[C@@H](C)C(=O)N[C@@H](C)C(=O)N[C@H](C(=O)N[C@@H](CCCC)C(=O)N[C@@H](CCCNC(=N)N)C(=O)N[C@H](C(=O)N[C@@H](Cc1c[nH]cn1)C(=O)NCC(=O)N[C@@H](CC(N)=O)C(=O)N[C@@H](CCC(=O)O)C(=O)N[C@@H](CC(C)C)C(=O)N[C@@H](CCCNC(=N)N)C(=O)N[C@@H](CCC(=O)O)C(=O)N[C@@H](CC(C)C)C(=O)N[C@@H](C)C(=O)N[C@@H](CC(=O)O)C(=O)N[C@@H](CCCCN)C(=O)O)C(C)C)[C@@H](C)CC [Peptide 16] (Ac-W[Nle]RDEFAAI[Nle]RVHGNELRELADK-OH),,65.0 ± 0.4,fully inhibited
CCCC[C@H](NC(=O)[C@H](Cc1c[nH]c2ccccc12)NC(C)=O)C(=O)N[C@@H](CCCNC(=N)N)C(=O)N[C@@H](CC(=O)O)C(=O)N[C@@H](CCC(=O)O)C(=O)N[C@@H](Cc1ccccc1)C(=O)N[C@@H](C)C(=O)N[C@@H](C)C(=O)N[C@H](C(=O)N[C@@H](CCCC)C(=O)N[C@@H](CCCNC(=N)N)C(=O)N[C@H](C(=O)N[C@@H](Cc1c[nH]cn1)C(=O)NCC(=O)N[C@@]1(C)CCCC=CCCC[C@@](C)(C(=O)N[C@@H](CC(C)C)C(=O)N[C@@H](C)C(=O)N[C@@H](CC(=O)O)C(=O)N[C@@H](CCCCN)C(=O)O)NC(=O)[C@H](CCCNC(=N)N)NC(=O)[C@H](CC(C)C)NC(=O)[C@H](CCC(=O)O)NC1=O)C(C)C)[C@@H](C)CC [Peptide 18] (Ac-W[Nle]RDEFAAI[Nle]RVHG[S5]ELR[S5]LADK-OH; staple 15-19),,66.3 ± 0.2,required a higher concentration to achieve full inhibition
CCCC[C@H](NC(=O)[C@H](Cc1c[nH]c2ccccc12)NC(C)=O)C(=O)N[C@@H](CCCNC(=N)N)C(=O)N[C@@]1(C)CCCC=CCCC[C@@](C)(C(=O)N[C@H](C(=O)N[C@@H](CCCC)C(=O)N[C@@H](CCCNC(=N)N)C(=O)N[C@H](C(=O)N[C@@H](Cc2c[nH]cn2)C(=O)NCC(=O)N[C@@H](CC(N)=O)C(=O)N[C@@H](CCC(=O)O)C(=O)N[C@@H](CC(C)C)C(=O)N[C@@H](CCCNC(=N)N)C(=O)N[C@@H](CCC(=O)O)C(=O)N[C@@H](CC(C)C)C(=O)N[C@@H](C)C(=O)N[C@@H](CC(=O)O)C(=O)N[C@@H](CCCCN)C(=O)O)C(C)C)[C@@H](C)CC)NC(=O)[C@H](C)NC(=O)[C@H](Cc2ccccc2)NC(=O)[C@H](CCC(=O)O)NC1=O [Peptide 17] (Ac-W[Nle]R[S5]EFA[S5]I[Nle]RVHGNELRELADK-OH; staple 4-8),,61.3 ± 0.3,required a higher concentration to achieve full inhibition
